The target in one assay is T1, human 5-HT2B receptor (Homo sapiens, UniProt P41595).
T1 construct: expressed in transfected cells; host or cells: HEK-293
Nature of the assay: Radioligand binding assay, 5-HT2B receptor. The note with it: radioligand displacement, transfected HEK-293 cells; read-out: Receptor binding affinity (Ki), 5-HT2B. The procedure:
(§1) The affinity of compounds for the human dopamine D2, D3, D4, 5-HT2A, 5-HT2B, 5-HT2C, 5-HT6, 5-HT7, H1, α1A, and α1B receptors in transfected HEK-293 cells was determined using a radioligand binding assay. Cell membrane homogenates were incubated in the absence or presence of the test compound in a buffer. Nonspecific binding was measured in the presence of the standard reference compound. Following incubation, samples were rapidly filtered under a vacuum through glass fibre filters (GF/B, Packard) presoaked with 0.3% PEI and rinsed several times with ice-cold 50 mM Tris-HCl using a 96-sample cell harvester (Unifilter, Packard). Filters were dried and then radioactivity was counted in a scintillation counter (Topcount, Packard) using a scintillation cocktail (Microscint 0, Packard). The results are expressed as percent inhibition of the specific binding of the radioligand in the control. The standard reference compound was tested in each experiment at several concentrations to obtain a competition curve from which its Ki was calculated.
For orientation: In a radioligand displacement assay an active substance lowers the binding of a labelled ligand.

Another assay concerns the target T2, human α1B receptor (Homo sapiens, UniProt P35368).
T2 construct: expressed in transfected cells; host or cells: HEK-293
T2 sequence (P35368 1-520): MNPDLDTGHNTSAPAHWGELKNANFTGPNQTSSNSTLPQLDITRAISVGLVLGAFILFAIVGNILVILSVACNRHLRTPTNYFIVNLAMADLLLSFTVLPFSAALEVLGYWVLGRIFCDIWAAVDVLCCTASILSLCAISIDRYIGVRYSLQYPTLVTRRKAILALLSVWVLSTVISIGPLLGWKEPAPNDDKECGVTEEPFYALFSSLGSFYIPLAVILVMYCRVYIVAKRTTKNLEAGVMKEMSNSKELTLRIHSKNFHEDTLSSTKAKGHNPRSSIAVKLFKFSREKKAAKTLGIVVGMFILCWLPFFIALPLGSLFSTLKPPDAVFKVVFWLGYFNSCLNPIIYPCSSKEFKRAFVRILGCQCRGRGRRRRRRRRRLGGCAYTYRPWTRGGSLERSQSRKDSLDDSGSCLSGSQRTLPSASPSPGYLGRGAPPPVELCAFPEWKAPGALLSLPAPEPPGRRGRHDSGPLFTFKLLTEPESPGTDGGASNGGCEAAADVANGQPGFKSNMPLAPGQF
Nature of the assay: Radioligand binding assay, α1B receptor. To be noted: radioligand displacement, transfected HEK-293 cells; read-out: Receptor binding affinity (Ki), α1B. Here is the method:
as §1

For the next assay, the target named is T3, human α1A receptor (Homo sapiens, UniProt P35348).
T3 construct: expressed in transfected cells; host or cells: HEK-293
T3 sequence (P35348 1-466): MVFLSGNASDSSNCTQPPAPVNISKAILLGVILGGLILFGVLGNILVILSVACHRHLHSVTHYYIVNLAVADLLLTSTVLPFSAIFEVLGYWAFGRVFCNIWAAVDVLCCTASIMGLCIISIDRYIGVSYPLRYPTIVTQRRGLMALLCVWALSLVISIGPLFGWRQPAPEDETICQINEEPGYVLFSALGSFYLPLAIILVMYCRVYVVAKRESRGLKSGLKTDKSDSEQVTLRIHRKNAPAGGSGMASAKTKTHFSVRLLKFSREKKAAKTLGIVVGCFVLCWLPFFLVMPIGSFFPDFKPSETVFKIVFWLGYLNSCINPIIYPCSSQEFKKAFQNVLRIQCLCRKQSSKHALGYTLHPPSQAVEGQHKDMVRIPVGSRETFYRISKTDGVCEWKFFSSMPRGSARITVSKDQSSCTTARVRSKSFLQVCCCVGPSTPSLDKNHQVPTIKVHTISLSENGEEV
Nature of the assay: Radioligand binding assay, α1A receptor. To be noted: radioligand displacement, transfected HEK-293 cells; read-out: Receptor binding affinity (Ki), α1A. Here is the method: as §1

T1 sequence (P41595 whole entry): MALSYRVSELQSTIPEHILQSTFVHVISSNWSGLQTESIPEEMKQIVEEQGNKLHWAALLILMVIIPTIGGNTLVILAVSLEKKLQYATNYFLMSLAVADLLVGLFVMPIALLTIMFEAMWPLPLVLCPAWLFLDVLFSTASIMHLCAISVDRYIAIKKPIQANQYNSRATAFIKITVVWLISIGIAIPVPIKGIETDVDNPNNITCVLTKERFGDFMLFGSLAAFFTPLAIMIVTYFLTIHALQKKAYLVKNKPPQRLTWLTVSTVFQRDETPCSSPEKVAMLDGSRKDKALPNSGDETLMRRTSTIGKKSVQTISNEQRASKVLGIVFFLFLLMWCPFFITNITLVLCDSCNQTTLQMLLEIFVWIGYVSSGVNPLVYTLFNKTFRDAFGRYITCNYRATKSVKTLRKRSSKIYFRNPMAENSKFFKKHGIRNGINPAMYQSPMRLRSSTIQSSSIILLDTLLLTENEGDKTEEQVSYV

Turning to `O=C1COc2ccc(OCCCCN3CCN(c4cccc(Cl)c4Cl)CC3)cc2N1` [PCC0104005], the Ki (in general, a measure of affinity in units of concentration, obtained from inhibition or displacement) is 0.34 nM at human 5-HT2B receptor, 3.2 nM on human α1B receptor and 8.3 nM at human α1A receptor.

(Values after article PMC5931996 (Scientific Reports, 2018).)
